In patent publication US11459336B2, “Pyrazine carbamates and their use as GluN2B receptor modulators” (JANSSEN PHARMACEUTICA NV, priority 2019, dated 2022):

Assays:
[1] = biological target: T1, human GluN1/GluN2B NMDA receptors (Homo sapiens, UniProt Q13224); experiment: Calcium flux (FLIPR) assay on cloned human GluN1/GluN2B ion channels expressed in mammalian cells, standard assay; format: cell-based; conditions: glutamate ~EC40, 10 μM glycine, stable cell line with Tet-On induced expression
T1 construct: expressed in transfected cells
T1 sequence (Q13224 27-1484, other chains not shown): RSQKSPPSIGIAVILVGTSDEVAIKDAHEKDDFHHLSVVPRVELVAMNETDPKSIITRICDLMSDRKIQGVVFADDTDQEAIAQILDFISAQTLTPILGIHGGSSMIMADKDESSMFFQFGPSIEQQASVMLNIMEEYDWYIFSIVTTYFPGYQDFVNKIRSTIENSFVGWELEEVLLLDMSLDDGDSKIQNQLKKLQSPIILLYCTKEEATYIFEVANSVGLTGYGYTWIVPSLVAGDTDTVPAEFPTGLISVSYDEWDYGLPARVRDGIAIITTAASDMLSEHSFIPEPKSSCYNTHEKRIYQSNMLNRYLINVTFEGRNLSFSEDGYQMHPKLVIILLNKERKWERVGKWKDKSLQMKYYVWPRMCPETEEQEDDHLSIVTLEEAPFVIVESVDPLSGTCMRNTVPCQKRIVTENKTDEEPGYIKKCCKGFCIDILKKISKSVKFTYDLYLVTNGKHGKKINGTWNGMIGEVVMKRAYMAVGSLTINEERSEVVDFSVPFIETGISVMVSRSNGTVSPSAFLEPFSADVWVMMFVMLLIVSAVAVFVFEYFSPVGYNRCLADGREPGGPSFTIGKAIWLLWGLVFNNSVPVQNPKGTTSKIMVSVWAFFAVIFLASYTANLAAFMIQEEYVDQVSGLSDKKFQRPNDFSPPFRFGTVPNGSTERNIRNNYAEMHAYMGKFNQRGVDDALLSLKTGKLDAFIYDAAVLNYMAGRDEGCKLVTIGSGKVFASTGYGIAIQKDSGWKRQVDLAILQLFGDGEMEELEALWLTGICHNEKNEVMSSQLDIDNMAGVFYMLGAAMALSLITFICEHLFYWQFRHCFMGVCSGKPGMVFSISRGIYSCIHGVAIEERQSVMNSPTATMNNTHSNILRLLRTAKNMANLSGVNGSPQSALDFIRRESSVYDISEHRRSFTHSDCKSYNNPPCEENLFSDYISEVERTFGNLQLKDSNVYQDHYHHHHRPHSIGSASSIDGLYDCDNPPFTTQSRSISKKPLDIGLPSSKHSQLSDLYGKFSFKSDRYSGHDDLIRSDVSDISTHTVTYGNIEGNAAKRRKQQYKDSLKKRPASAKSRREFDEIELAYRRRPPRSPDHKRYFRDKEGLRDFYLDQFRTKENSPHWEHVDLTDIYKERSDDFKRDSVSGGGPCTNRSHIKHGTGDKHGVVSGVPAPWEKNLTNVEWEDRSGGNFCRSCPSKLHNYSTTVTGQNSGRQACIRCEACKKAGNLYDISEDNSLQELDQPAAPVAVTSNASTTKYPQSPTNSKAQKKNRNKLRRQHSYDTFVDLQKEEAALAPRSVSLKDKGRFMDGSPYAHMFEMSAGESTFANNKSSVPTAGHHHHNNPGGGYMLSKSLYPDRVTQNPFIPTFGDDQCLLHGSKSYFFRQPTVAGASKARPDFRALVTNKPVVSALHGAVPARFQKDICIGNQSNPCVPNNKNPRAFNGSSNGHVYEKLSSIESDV
Procedure: (§1) NMDA receptors are ion channels that are highly permeable to Ca^2+ ions, rendering it possible to monitor NMDA receptor function using cell-based calcium flux assay. In this assay, co-agonists glutamate and glycine are added to cells heterologously expressing human GluN1/GluN2B NMDA receptors to initiate cellular Ca^2+ influx. The time course of the changes in intracellular calcium is measured using a fluorescent dye and a FLIPR (Fluorometric Imaging Plate Reader) device.
(§2) Twenty four hours before measurements, the expression of the NMDA receptors in the stable cell line is induced with Tet-On inducible system in the presence of a non-selective NMDA receptor blocker. On the day of the experiment, cell culture media is carefully washed and the cells are loaded with Calcium 5 Dye Kit (Molecular Devices) in dye loading buffer containing 137 mM NaCl, 4 mM KCl, 2 mM CaCl2, 0.5 mM MgCl2 (standard assay) or 1.5 mM MgCl2 (HTS assay), 10 mM HEPES and 5 mM D-glucose; pH 7.4. After 1 h incubation at the room temperature, the dye is washed away with the assay buffer (137 mM NaCl (standard assay) or 150 mM (HTS assay), 4 mM KCl (standard assay) or 3 mM (HTS assay), 2 mM CaCl2, 0.01 mM EDTA, 10 mM HEPES and 5 mM D-glucose; pH 7.4) In the FLIPR TETRA reader, various concentrations of the test compounds are added to the cells for 5 min while fluorescence is monitored to detect potential agonist activity. Next, co-agonists, glutamate and glycine are added for another 5 minutes. The concentration of glutamate corresponding to ˜EC40 (standard assay) or EC40 (HTS assay) is used to maximize the assay's signal window and ability to detect NMDA receptor antagonists and negative allosteric modulators. A saturating concentration (10 μM) of glycine is also present in the assay. A non-selective NMDA receptor antagonist, (+)MK-801 is used as a positive control for antagonist activity. The fluorescent signal in the presence of test compounds is quantified and normalized to the signal defined by the appropriate control wells.

[2] = Liver microsomal stability assay (extraction ratio); format: in vitro ADME; conditions: test compound 1 μM; 0.5 mg/mL liver microsomes, 1 mM NADPH, 37° C.; species not given (method: mouse, rat, and human)
Procedure: Microsomal stability studies (see, Chrovian et al, “1H-Pyrrolo[3,2-b]pyridine GluN2B-Selective Negative Allosteric Modulators”. ACS Med Chem Lett. 2019 Jan. 10; 10(3):261-266) were conducted on a Biomek® FX Robotic Liquid Handling Workstation (Beckman Coulter, Brea, Calif.), which consists of a 96-channel pipette head, a 12-position workstation deck, and a plate incubator. Test compounds (1 μM) were spiked in a reaction mix consisting of 100 mM potassium phosphate buffer (pH 7.4), 3 mM MgCl2, and 0.5 mg/mL liver microsomes from mouse, rat, and human (BD Gentest). The reaction was brought to 37° C. and initiated by adding NADPH to a final concentration of 1 mM. After mixing on the platedeck, 50 μL aliquots were excised from the reaction plate at 0, 5, 10, 20, 40, and 60 min and quenched with four volumes of acetonitrile spiked with […] of the internal standard phenytoin. Quenched plates were centrifuged at 5700 rpm for 10 min at 4° C., and supernatant was diluted 1:3 in water before LC/MS/MS analysis. The compound half-lives were derived from plots of the ln of percent remaining compound over time to determine the intrinsic clearance. The predicted hepatic clearance was derived from the intrinsic clearance value using equations from the well-stirred model (Current Drug Metabolism, 2008, 9, 940-951), where no correction was made plasma protein binding and the blood to plasma concentration ratio was assumed to be one. The extraction ratio (ER) was calculated by dividing the predicted hepatic clearance by species blood flow (Q), where Q is 90, 55, and 21.7 mL/min/kg for mouse, rat and human, respectively.

[3] = biological target: T2, human GluN1/GluN2B NMDA receptors (Homo sapiens, UniProt Q05586+Q13224); experiment: Calcium flux (FLIPR) assay on cloned human GluN1/GluN2B ion channels expressed in mammalian cells, standard assay; format: cell-based; conditions: glutamate ~EC40, 10 μM glycine, stable cell line with Tet-On induced expression
T2 construct: expressed in transfected cells
T2 sequence (Q13224 27-1484, other chains not shown): as above
Procedure: as §1, §2

Row | Structure (SMILES) | IC50 [1] | Extraction Ratio @ 1 μM [2] | IC50 [3]
1 | C[C@H]1COC(=O)N1Cc1cncc(-c2ccc(F)c(C(F)F)c2)n1 [Example 8, (4S)-3-[[6-[3-(Difluoromethyl)-4-fluoro-phenyl]pyrazin-2-yl]methyl]-4-methyl-oxazolidin-2-one] | 872 nM | 0.06 | –
2 | Cc1ncc(-c2ccc(F)c(C(F)F)c2)nc1CN1C(=O)OC[C@H]1C [Example 11, (4R)-3-[[6-[3-(Difluoromethyl)-4-fluoro-phenyl]-3-methyl-pyrazin-2-yl]methyl]-4-methyl-oxazolidin-2-one] | 192 nM | 0.18 | –
3 | O=C1OC2(CC2)CN1Cc1cncc(-c2ccc(F)c(C(F)F)c2)n1 [Example 3, 5-[[6-[3-(Difluoromethyl)-4-fluoro-phenyl]pyrazin-2-yl]methyl]-7-oxa-5-azaspiro[2.4]heptan-6-one] | 13 nM | 0.05 | –
4 | CNC(=O)C1CN(Cc2cncc(-c3ccc(F)c(C(F)F)c3)n2)C(=O)O1 (racemic) [Example 59, (R/S)-3-[[6-[3-(Difluoromethyl)-4-fluoro-phenyl]pyrazin-2-yl]methyl]-N-methyl-2-oxo-oxazolidine-5-carboxamide] | – | 0.18 | > 3000 nM
5 | Cc1ncc(-c2ccc(F)c(C(F)F)c2)nc1CN1CCCOC1=O [Example 15, 3-[[6-[3-(Difluoromethyl)-4-fluoro-phenyl]-3-methyl-pyrazin-2-yl]methyl]-1,3-oxazinan-2-one] | 65 nM | 0.06 | –
